Test results: patent US20230181535A1, “UBIQUITIN-LIGASE INHIBITORS FOR THE TREATMENT OF CANCER” (FUNDACIÓN PROFESOR NOVOA SANTOS, priority 2020, published 2023)
pIC50: −log10 of the molar value.

What was measured:
[1] = test system: HT29 cell line; assay: Invasion assay, HT29 (dose/response); format: cell-based, human; conditions: for cell invasion: treated 48 h, 1 μM, 10 μM, 50 μM, vs DMSO
Experimental: [The procedure below names another cell line; the source lists this cell line under the same test.] For invasion assays, cells were treated with Hakin-1 or DMSO as vehicle for 48 h using 1% FBS during the last 24 hours. 3×10^5 MDCK, MDCK-Hakai or LoVo cells were seeded in a cell invasion chamber (Cell invasion assay kit, Chemicon International) containing medium with 2% FBS. After 72 hours for MDCK and MDCK-Hakai Invasive and 16 h for LoVo cells, invasive cells invaded that reach the lower chamber containing 30% FBS were fixed and stained with crystal violet (Sigma Aldrich, St Louis, Mo.) following the manufacturer's specifications. For migration assays, HT29 cells were cultured with Hakin-1 or DMSO as vehicle for 48 h, using medium without serum the last 24 h. In the cell migration chamber were seeded 3×10^5 HT29 cells (Cell migration kit, Millipore, Bedford, Mass.) containing medium without serum. After 16 h, migrated cells in the lower chamber containing serum with 30% FBS were stained with crystal violet and counted following the manufacturer's specifications. For both invasion and migration assays cells were counted in five fields photographed with an Olympus microscope using a 20× objective, experiments were performed in triplicates for each condition and the assays were repeated at least three times. Results are expressed as mean±SD.

[2] = target: T1, E3 ubiquitin-ligase Hakai (Mus musculus, UniProt Q9JIY2); assay: In vivo Hakai-dependent ubiquitination assay in 293T cells; format: cell-based; conditions: vs DMSO; for Hakai-induced ubiquitination: HEK293T cells transfected with Hakai and ubiquitin
T1 construct: expressed in transfected cells; host or cells: HEK293T
T1 sequence (Q9JIY2 1-491): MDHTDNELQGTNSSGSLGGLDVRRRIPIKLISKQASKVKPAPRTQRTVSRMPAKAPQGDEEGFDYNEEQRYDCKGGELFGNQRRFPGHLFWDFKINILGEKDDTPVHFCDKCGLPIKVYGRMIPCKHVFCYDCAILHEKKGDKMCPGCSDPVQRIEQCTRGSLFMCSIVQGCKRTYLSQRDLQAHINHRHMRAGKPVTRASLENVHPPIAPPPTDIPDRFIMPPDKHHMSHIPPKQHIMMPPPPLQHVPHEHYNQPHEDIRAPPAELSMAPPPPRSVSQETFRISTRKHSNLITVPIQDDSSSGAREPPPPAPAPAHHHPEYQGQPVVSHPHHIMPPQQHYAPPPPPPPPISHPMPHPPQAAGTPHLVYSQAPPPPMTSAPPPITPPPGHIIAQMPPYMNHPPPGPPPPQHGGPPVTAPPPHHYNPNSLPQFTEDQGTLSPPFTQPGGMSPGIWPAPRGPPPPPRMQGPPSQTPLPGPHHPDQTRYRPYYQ
Experimental: For ubiquitination assays, 750.000 HEK293T cells were seeded in 6-well cell culture plates and after 24 h were transfected with 0.25 μg Src, 0.75 μg Flag-Hakai, and 0.5 μg HA-ubiquitin with Lipofectamin 2000 (Invitrogen, UK). Six hours after transfection cells were treated with indicated concentrations of Hakin-1, Hakin-5 or the rest of the compounds tested for 36 h. Whole cell extracts were obtained in lysis buffer (20 mM Tris-HCl pH 7.5, 150 mM NaCl and 1% Triton X-100) containing 10 μg/ml leupeptin, 10 μg/ml aprotinin and 1 mM phenylmethanesulphonyl fluoride (PMSF), supplemented with 10 mM N-ethylmaleimide. Cells were harvested and subjected to western blotting using anti-HA antibody to detect ubiquitination.

[3] = test system: HCT116 colon cancer cells; assay: MTT cell viability assay, HCT116; format: cell-based, human; conditions: concentrations tested in the previous assays
Experimental: (§1) For cytotoxicity assays, 1×10^4 cells were seeded per well into a 96-well plate. After 24 h cells were treated with the indicated inhibitors for 72 h and a MTT colorimetric cell viability assay was performed following manufacturer's instructions (Sigma Aldrich, St Louis, Mo.). Absorbance was measured at 570 and 630 nm using a Multiskan Plus Reader (Nanoquant Infinite M200 Tecan Trading AG, Switzerland). Dose-response curves were designed with Graph Pad Prism Software and the half-maximal inhibitory concentration (IC50) values were calculated. Represented data are the mean±SEM of at least three independent experiments with six replicates per condition.

[4] = test system: HT-29 human colorectal adenocarcinoma cell line; assay: E-cadherin at cell-cell contacts, Vala SIM / CyteSeer Cell-Cell Junction Algorithm, HT-29; format: cell-based; conditions: for E-cadherin levels at cell-cell contacts: 48 hours, vs DMSO vehicle control; for increase of E-cadherin expression levels: 24 hours
Experimental: (§2) For western blot analysis, cells were treated with the indicated inhibitors for 48 h and the whole cell extracts were obtained as described previously. Twenty micrograms of lysates were resolved on a 10% polyacrilamide SDS-PAGE followed by western blot analysis performed as previously described. For immunofluorescence assays cells were grown for 24 h on glass coverslips and treated with the indicated inhibitors for 48 h. Cells were fixed with 4% PFA for 15 min, permeabilized with 0.5% […] and incubated with E-cadherin antibody for 2 h. Coverslips were incubated with fluorescein-tagged secondary antibody (Dakopatts, Sweden) for […]. Finally coverslips were mounted with ProLong Gold antifade reagent (LifeTech, UK) and images were taken in epifluorescence microscope (Olympus) using 40× objective. Immunofluorescence of E-cadherin and DNA content analysis for FIGS. 22-23 were performed culturing of HT-29 human colorectal adenocarcinoma cell line in 384-well plates with densities of 3,000 cells per well in a total volume of 25 μl. After the completion of the staining, four images (2×2 array) of each well were taken with Vala Sciences' SIM™ with a 20× objective. Each image was acquired as a SIM Synthetic Focus with a z-stack range of 6 μm with 1 μm steps. The SIM Synthetic Focus feature will compile a “best focus” images from multiple images. One set of SIM Synthetic Focus images were taken in the DAPI channel for Hoechst 33342 staining, and another set of images were taken in the FITC channel for anti-E-cadherin-AlexaFluor488 labeling and analysed by Structured Illumination Microscopy (SIM™) platform to image the cells and Vala's CyteSeer® Cell-Cell Junction Algorithm to quantify the degree of expression and intracellular location of E-cadherin Vala's CyteSeer® Software can also measure relative DNA content by analyzing Total Integrated Intensity (TII) of the Nuclear Image (Ni) on the Nuclear Mask (Nm). This analysis was performed by Vala Science. Twenty compounds from were assayed in a “blinded” manner, at 2 test concentrations in 6 replicate wells for first assay and 3 replicate for second assay.

[5] = test system: non-cancerous HEK293T cells; assay: MTT cell viability assay, HEK293T; format: cell-based, human; conditions: concentrations tested in the previous assays
Experimental: as §1

[6] = test system: HT-29 cells; assay: Cell cycle (DNA content) analysis with CyteSeer, HT-29; format: cell-based, human
Experimental: as §2

[7] = test system: Colon cancer HCT116 cells; assay: BrdU proliferation assay, HCT116; format: cell-based, human; conditions: 48 h
Experimental: (§3) For BrdU assays, 1×10^4 of indicated cells were plated per well into a 96-well plate. After 24 h, cells were treated with the indicated inhibitors for 48 h. Three independent experiments were plated with six replicates per each condition. Cells were treated with […] BrdU for 2 h. BrdU incorporation into newly synthesized DNA was measured using a cell proliferation colorimetric immunoassay kit according to the manufacturer's instructions (Roche, Switzerland). Results are expressed as mean±S.D. Results are represented as percentage of positive cells (mean±S.D) of three independent experiments.

[8] = test system: HT-29 cells; assay: Immunofluorescence of E-cadherin, HT-29; format: cell-based, human; conditions: for E-cadherin expression at cell-cell contacts (immunofluorescence, Image J): 48 hours, 5-100 μM, vs DMSO vehicle control
Experimental: as §2

[9] = test system: epithelial MDCK cells; assay: Phase-contrast cell phenotype, MDCK; format: cell-based
Experimental: (§4) MDCK, HEK293T, HepG2, MCF7 and ACHN cells were cultured in Dulbecco's Modified Eagles Medium (DMEM). MDCK stably expressing Hakai cells (Hakai-MDCK) were previously reported and were growth in DMEM with G418 (800 μg/ml). […] LoVo and PC-3 cells were cultured in F-12K Medium (Kaighn's Modification of Ham's F-12 Medium) and HT-29 and HCT116 cells in McCoy's 5a Medium Modified. 5637 cells were cultured in RPMI medium. All culture media were supplemented with 1% penicillin/streptomycin and 10% of heat-inactivated fetal bovine serum (FBS) at 37° C. in a humidified incubator with 5% CO2. Cells were monthly tested for mycoplasma contamination and used only for 1-3 months after defrosted. LoVo and HT29 cells were authenticated with the StemElite ID system (Promega). For phase-contrast images, culture cells were photographed with a Nikon Eclipse-TI microscope.

[10] = test system: Hakai-MDCK cell lines (clone 4 and clone 11); assay: MTT cell viability assay, Hakai-MDCK; format: cell-based; conditions: Hakai-MDCK clone 4 and clone 11, compared with MDCK
Experimental: as §1

[11] = test system: Hakai-transformed MDCK cells; assay: Phase-contrast cell phenotype, Hakai-MDCK; format: cell-based; conditions: Hakai-transformed MDCK cells (mesenchymal phenotype)
Experimental: as §4

[12] = test system: LoVo cells; assay: Phase-contrast cell phenotype, LoVo; format: cell-based
Experimental: as §4

[13] = test system: normal epithelial MDCK cell line; assay: MTT cell viability assay, MDCK; format: cell-based; conditions: compared with Hakai-MDCK
Experimental: as §1

[14] = test system: HT29 cells; assay: BrdU proliferation assay, HT29; format: cell-based, human; conditions: 48 h
Experimental: as §3

[15] = test system: HT-29 cells; assay: Phase-contrast cell phenotype, HT-29; format: cell-based, human
Experimental: as §4

[16] = test system: LoVo cells; assay: BrdU proliferation assay, LoVo; format: cell-based; conditions: 48 h
Experimental: as §3

[17] = test system: HT-29 cells; assay: Western blotting of EMT markers, HT-29; format: cell-based, human; conditions: 48 h
Experimental: as §2

O=C(O)c1ccc(-n2nnnc2SC(c2ccccc2)c2ccc(Cl)cc2)cc1 (stereo not shown) [Compound K1]
cell invasion [1]: reduce cell invasion | Hakai-induced ubiquitination [2]: reduced ubiquitination at 20 μM and 100 μM | cytotoxic effect (cell viability, MTT) [3]: no cytotoxic effect | E-cadherin levels at cell-cell contacts ([4]; 100 μM): significantly increased E-cadherin levels at cell-cell contacts | cytotoxic effect (cell viability, MTT) [5]: no cytotoxic effect | cell cycle ([6]; 100 μM, 48 hours): arrested the cells in G0/G1 phase | cell numbers ([6]; 100 μM, 48 hours): reduced the cell numbers

Cc1ccc(NC(=O)CSc2nnnn2-c2cccc(C(=O)O)c2)cc1C [Compound K2]
E-cadherin levels at cell-cell contacts ([4]; 100 μM or 20 μM): Significant differences were also detected | cell cycle ([6]; 100 μM, 48 hours): arrested the cells in G0/G1 phase | cell numbers ([6]; 100 μM, 48 hours): reduced the cell numbers

Cc1ccc(CNC(=O)CSc2nc3sccc3c(=O)n2-c2ccc(C(=O)O)cc2)cc1 [Compound K8]
cell proliferation (BrdU) [7]: inhibit cell proliferation | pIC50 ([1]; Homo sapiens, HT-29, treated 48 h, read-out: concentration at which 50% inhibition of invasion was achieved): ~6.00 | cell invasion [1]: reduce cell invasion | E-cadherin expression at cell-cell contacts (immunofluorescence, Image J) [8]: increase E-cadherin levels at cell-cell contacts | Hakai-induced ubiquitination [2]: reduce ubiquitination at 20 μM | cytotoxic effect (cell viability, MTT) [3]: inhibitory response in cancer cells | cytotoxic effect (cell viability, MTT) [5]: no effect was detected in non-tumour cells

O=C(O)c1ccc(-n2nnnc2SC2CCc3ccccc3NC2=O)cc1 (stereo not shown) [Compound K33]
E-cadherin expression at cell-cell contacts (immunofluorescence, Image J) [8]: increase E-cadherin levels at cell-cell contacts

CC(/C=C/C(=O)O)=C\CC(O)/C(C)=C/CCC(C)C(C)O (stereo not shown) [Hakin-5, (2E,4E,8E)-7,13-Dihydroxy-4,8,12-trimethyl-2,4,8-tetradecatrienoic acid, reference compound]
E-cadherin levels at cell-cell contacts (immunofluorescence) ([8]; 48 h, vs DMSO): no effect by western-blotting or immunofluorescence was detected on E-cadherin protein levels | cell phenotype by phase contrast [9]: no effect was observed | ubiquitination mediated by Hakai ([2]; 293T cells transfected with Src, Flag-Hakai and HA-ubiquitin, western blotting anti-HA): no effect was detected on Hakai-mediated ubiquitination | sensitivity to treatment (cell viability, MTT) [10]: more sensitive | cell phenotype by phase contrast [11]: induction of an epithelial phenotype | cell phenotype by phase contrast [12]: modestly induce an epithelial phenotype | sensitivity to treatment (cell viability, MTT) [13]: more resistant | cell proliferation (BrdU) [14]: no effect was seen | cell phenotype by phase contrast [15]: modestly induce an epithelial phenotype | cell proliferation (BrdU) [16]: no effect was seen | EMT markers expression (E-Cadherin, Cortactin, Hakai) ([17]; HT29): does not affect the EMT markers expression | E-cadherin levels (western blotting) ([17]; HT-29): no effect by western-blotting or immunofluorescence was detected on E-cadherin protein levels

COC(=O)Nc1nc2ccc(C(=O)c3cccs3)cc2[nH]1 [nocodazole]
increase of E-cadherin expression levels ([4]; 250 ng/ml): 32% | increase of E-cadherin expression levels ([4]; 500 ng/ml): 42% | increase of E-cadherin expression levels ([4]; 1000 ng/ml): 47% | cell cycle ([6]; 24 hours, vs DMSO vehicle control): dramatic shift towards G2/M phase arrest
